From PubChem BioAssay (NCI) come the findings set out here.

SMILES strings stand for the structures.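 Interpolation was linear, between the two tested concentrations surrounding the appropriate level; five concentrations were tested over 48 hours in 96-well plates. GI50 marks 50% less growth. TGI is the concentration that stops growth completely.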

Test systems include A549 NSCLC; SK-MEL-5 melanoma; HOP-62 NSCLC; DU-145 prostate; SNB-19 CNS; UACC-257 melanoma; IGROV1 ovarian; SF-268 CNS; NCI-H522 lung; KM12 colon.
Test in all cases: NCI tumour cell line growth inhibition, 48 h

Take `CCSc1nc(SCC)c2cn[nH]c2n1`: the GI50 in the experiment on A549 NSCLC was 46.5 µM; in the experiment on SK-MEL-5 melanoma, 18 µM; in the experiment with HOP-62 NSCLC, 18.6 µM; in the experiment on DU-145 prostate, 30.6 µM; in the experiment on SNB-19 CNS it was 46.8 µM; with UACC-257 melanoma, 89 µM. Besides, the GI50 was 49 µM in the experiment with IGROV1 ovarian, 26.3 µM in the experiment with SF-268 CNS, 35.7 µM with NCI-H522 lung and 42 µM with KM12 colon. Moreover, the TGI in the experiment on A549 NSCLC is greater than 100 µM; with SK-MEL-5 melanoma, 41.8 µM; in the experiment on HOP-62 NSCLC it was greater than 100 µM; in the experiment on DU-145 prostate, greater than 100 µM; with SNB-19 CNS, greater than 100 µM; with UACC-257 melanoma, greater than 100 µM. Further, the TGI in the experiment with IGROV1 ovarian was greater than 100 µM; with SF-268 CNS it was 77.5 µM; in the experiment on NCI-H522 lung it was greater than 100 µM; in the experiment on KM12 colon it was greater than 100 µM.

As for `C#Cc1c(I)n(C2OC(CO[Si](C)(C)C(C)(C)C)C3OC(C)(C)OC32)c(=O)[nH]c1=O` (stereo not given), the GI50 in the experiment with A549 NSCLC was 49.6 µM; with SK-MEL-5 melanoma, 13.1 µM; in the experiment on HOP-62 NSCLC it was 20 µM; with DU-145 prostate, 4.57 µM; with SNB-19 CNS, 24.1 µM; in the experiment on UACC-257 melanoma, 15.2 µM. The GI50 with IGROV1 ovarian was 4.46 µM; in the experiment with SF-268 CNS, 12.3 µM; with NCI-H522 lung, 1.72 µM; in the experiment on KM12 colon, 16.9 µM. Besides, the TGI in the experiment with A549 NSCLC was greater than 100 µM; in the experiment with SK-MEL-5 melanoma, 27.1 µM; in the experiment with HOP-62 NSCLC, 38.4 µM; in the experiment with DU-145 prostate, 19.4 µM; in the experiment with SNB-19 CNS it was 78.8 µM; in the experiment with UACC-257 melanoma, 29.8 µM. In addition, the TGI in the experiment with IGROV1 ovarian turned out to be 19.1 µM; with SF-268 CNS, 27.8 µM; in the experiment with NCI-H522 lung, 3.52 µM; with KM12 colon, 35.6 µM.

For `COc1cc(/C=C/c2ccc(OC)c(OC)c2)cc(OC)c1`, the TGI in the experiment on A549 NSCLC was greater than 100 µM; in the experiment on SK-MEL-5 melanoma, 41.1 µM; in the experiment with HOP-62 NSCLC, greater than 100 µM; in the experiment on DU-145 prostate, greater than 100 µM; in the experiment on SNB-19 CNS, greater than 100 µM; in the experiment on UACC-257 melanoma, greater than 100 µM. Also, the TGI with IGROV1 ovarian is greater than 100 µM; with SF-268 CNS, greater than 100 µM; with NCI-H522 lung it was 66.4 µM; with KM12 colon it was 40.6 µM.

Take `CCCCON(OC(=O)c1ccc2ccc3cccc4ccc1c2c34)C(C)=O`: the GI50 with A549 NSCLC was 39.1 µM; with SK-MEL-5 melanoma, 16.9 µM; with HOP-62 NSCLC, 24 µM; with DU-145 prostate it was 31.1 µM; in the experiment with SNB-19 CNS, 34.3 µM; with UACC-257 melanoma, 60.3 µM. Also, the GI50 in the experiment with IGROV1 ovarian is 16.5 µM; in the experiment with SF-268 CNS, 19.5 µM; with NCI-H522 lung, 19.4 µM; in the experiment with KM12 colon it was 28.8 µM. Besides, the TGI in the experiment with A549 NSCLC is greater than 100 µM; in the experiment on SK-MEL-5 melanoma it was 32.5 µM; with HOP-62 NSCLC, 60.1 µM; in the experiment on DU-145 prostate it was greater than 100 µM; in the experiment on SNB-19 CNS it was greater than 100 µM; in the experiment on UACC-257 melanoma, greater than 100 µM. Moreover, the TGI with IGROV1 ovarian is 55.2 µM; with SF-268 CNS, 40.5 µM; with NCI-H522 lung, 45.7 µM; in the experiment with KM12 colon, greater than 100 µM.

As for `COc1ccc(C(=O)COc2ccc(/C=C3\COc4ccc(OC)cc4C3=O)cc2)cc1`, the GI50 in the experiment with A549 NSCLC was greater than 100 µM; with SK-MEL-5 melanoma, 24.6 µM; with HOP-62 NSCLC it was 24.8 µM; in the experiment on DU-145 prostate it was 31 µM; in the experiment with SNB-19 CNS, 29.8 µM; in the experiment with UACC-257 melanoma, 52.1 µM. For the same compound, the GI50 is 26 µM with IGROV1 ovarian, 23.7 µM in the experiment on SF-268 CNS, 16.7 µM in the experiment with NCI-H522 lung and 8.72 µM in the experiment with KM12 colon. The TGI was greater than 100 µM in the experiment with A549 NSCLC; greater than 100 µM in the experiment with SK-MEL-5 melanoma; 47.7 µM with HOP-62 NSCLC; greater than 100 µM with DU-145 prostate; greater than 100 µM in the experiment with SNB-19 CNS; greater than 100 µM in the experiment with UACC-257 melanoma. Also, the TGI in the experiment on IGROV1 ovarian was 54.7 µM; with SF-268 CNS, 60.5 µM; with NCI-H522 lung, 74.5 µM; in the experiment on KM12 colon, 85.8 µM.

`COc1ccc(CC2NCCc3cc(OC)c(OC)cc32)cc1Br` (stereo not given): the TGI was greater than 100 µM in the experiment with A549 NSCLC; 19.9 µM in the experiment on SK-MEL-5 melanoma; greater than 100 µM in the experiment on HOP-62 NSCLC; greater than 100 µM in the experiment on DU-145 prostate; greater than 100 µM in the experiment with SNB-19 CNS; 45.6 µM in the experiment with UACC-257 melanoma. Moreover, the TGI with IGROV1 ovarian, in the experiment on SF-268 CNS, in the experiment on NCI-H522 lung and in the experiment with KM12 colon was greater than 100 µM throughout.

For `ClCc1cccc(Cn2cnc3nc(Cl)nc(Cl)c32)c1`, the GI50 in the experiment on A549 NSCLC is 6.46 µM; with SK-MEL-5 melanoma, 0.614 µM; with HOP-62 NSCLC, 1.99 µM; with DU-145 prostate, 0.141 µM; in the experiment on SNB-19 CNS, 1.32 µM; in the experiment with UACC-257 melanoma, 2.48 µM. The GI50 was 4.45 µM in the experiment with IGROV1 ovarian, 1.38 µM in the experiment on SF-268 CNS, 1.84 µM in the experiment with NCI-H522 lung and 16.7 µM in the experiment on KM12 colon. Moreover, the TGI in the experiment with A549 NSCLC turned out to be 19.8 µM; in the experiment on SK-MEL-5 melanoma, 1.94 µM; with HOP-62 NSCLC it was 3.44 µM; with DU-145 prostate, 0.271 µM; with SNB-19 CNS it was 2.69 µM; in the experiment on UACC-257 melanoma, 7.35 µM. Further, the TGI with IGROV1 ovarian came to 8.92 µM; with SF-268 CNS, 3.83 µM; with NCI-H522 lung it was 3.79 µM; in the experiment on KM12 colon, 35.4 µM.
